The source of these data is PMC6698794, “Catalytic Knockdown of miR-21 by Artificial Ribonuclease: Biological Performance in Tumor Model” (Frontiers in Pharmacology, 2019).

In one data set the test system is RLS40 lymphosarcoma. Nature of the data set: Hepatic index of mice implanted with treated RLS40 cells. The format is in vivo. To be noted: cells treated with 1 µM; (liver weight/mouse weight) × 100%; 5.0% for healthy CBA mice; Mean ± SE. The procedure: RLS40 ascites were taken from CBA mice intraperitoneally injected with tumor cells (2 × 10^6 in 0.2 ml buffered saline) into their abdominal cavities. RLS40 cells, isolated from ascites fluid by filtration through LSM were divided into seven portions: 1) untreated cells; 2) the cells incubated with Lipofectamine; the cells transfected with 1 µM of 3) h-ODN, 4) 2′-OMe, 5) Inh, 6) miR-21-miRNase, or 7) luc-POC each. After 4 h of transfection, cell suspensions (0.1 ml, 2 × 10^6 cells) were intramuscularly inoculated into the right lower limb of CBA mice for solid tumor development. As soon as tumors began to be palpable, the tumor volumes were measured every 2–3 days using calipers. Tumor volumes were calculated as V = (π/6 × length × width × height). Hepatic index was estimated as (liver weight/mouse weight) × 100% and as 5.0% for healthy CBA mice. Tumor doubling time (DT) was estimated as DT = (t − t0) × ln 2/(ln V − ln V0), where (t − t0) indicates the length of time between two measurements of tumor size and V0 and V denote the tumor volume at two points of the measurement ([Ozono et al., 2004]).
Supplementary Table 2. Hepatic indexes of mice implanted with RLS40 treated with antisense
oligonucleotides, control luc-POC and miR-21-miRNase
Type of treatment Hepatic index, %* p-value (vs control)
* – Mean ± SE; s.i. – statistically insignificant
Hepatic index was estimated as (liver weight/mouse weight) × 100% and as 5.0% for healthy CBA
The MDR status of RLS40 may add to the burden on the liver, when this type of tumor
metastasizes into the liver (Sen’kova et al., 2012). Ex vivo treatment of RLS40 cells by
oligonucleotides and miRNase avoids the toxic effect of antisense oligonucleotides, their conjugates
and transfection reagents directly on the tumor-bearing animal. This may allow consideration of
whether the decrease of migration activity of tumor cells translated into reduced metastatic burden of
RLS40 on the liver. Treatment of the cells seeding the tumor may not reduce migration and […]

For another data set, the system named is B16 cells. In words: In vitro invasiveness assay (xCELLigence, Matrigel-coated CIM-Plates). The format is cell-based, mouse. As to conditions: 1 µM with Lipofectamine. As to the method:
B16 cells were pre-seeded (2 × 10^5 per well of 24-well plates) in DMEM/10% FBS a day before transfection. Medium was replaced with serum-free DMEM, prior to incubation for 4 h with h-ODN, 2′-OMe, Inh (hsa-miR-21 5 p inhibitor, Ambion, USA), miR-21-miRNase, or luc-POC, each (0.1 or 1 µM) pre-complexed with Lipofectamine (Thermo Fisher Scientific, USA) in Opti-MEM medium (Thermo Fisher Scientific, USA) according to manufacturer’s instructions, then cells were cultivated in fresh culture standard medium for 24–72 h.
Real-time cell analysis (xCELLigence, ACEABiosciences, USA) used CIM-Plates held at 37°C under an atmosphere of 5% CO2. Top chamber wells were coated with Matrigel (20 µl per well, diluted 1:40 with cold serum-free DMEM) and allowed to polymerize (4 h at 37°C under 5% CO2) prior to cell seeding. Bottom chamber wells were filled with DMEM/10% FBS (160 µl each), prior to assembly of the chambers, when serum-free DMEM was added to the top wells (30 µl each) and equilibrated (1 h at 37°C under 5% CO2). At 4 h after transfection, B16 cells (4 × 10^4) were seeded into each top chamber well in serum-free DMEM and pre-incubated for 30 min at room temperature before monitoring (xCELLigence set to collect impedance data, reported as cell index at least once every 30 min).
Figure 2 Biological effect of the miR-21-specific miRNase. (A) Apoptotic profile of B16 melanoma cells after transfection with miR-21-miRNase and control luc-POC. Cytofluorimetric analysis of cells after staining with Annexin V-FITC/PI 48 h after transfection with miRNase or luc-POC (1 µM) in complex with Lipofectamine2000. Q1—population of living cells; Q2—Annexin V-FITC+/PI-, early apoptosis; Q3—Annexin V-FITC+/PI+, late apoptosis; Q4—Annexin V-FITC-/PI+, necrosis. (B) Average percentage of apoptotic (early and late apoptosis) and necrotic B16 cell population. Data represent mean ± s.e. of four independent experiments.(C, D) Invasion activity of B16 cells after incubation with Lipofectamine (LF) alone or treated with either hairpin antisense oligonucleotide (h-ODN), hairpin 2′-OMe oligonucleotide (2′-OMe), commercial miR-21 inhibitor (Inh), miR-21-miRNase, and control conjugate (luc-POC) in the concentration of 1 µM. Migration of cells was recorded in real time using the xCELLigence cell analysis system. Control—B16 cells without treatment. Data represent mean ± s.d. of four independent experiments.

For the substance “acetyl-[(LeuArg)2Gly]2-aminohexyl-AGTCTGATAAGCTACAAGTCAGCGAAAGCTGACTTG [miR-21-miRNase, peptide acetyl-[(LeuArg)2Gly]2 conjugated through aminohexyl linker to 5′-end of miR-21-targeted hairpin oligodeoxyribonucleotide]”, in the data set with RLS40 lymphosarcoma, the Hepatic index was 5.1±0.16%. Besides, the “Inhibition of invasion of B16 cells relative to luc-POC” value in the data set with B16 cells (time point 40 h) is given as “about 70%”. The “Inhibition of invasion of B16 cells relative to control” value with B16 cells (time point 40 h, four independent experiments) is listed as “about 70%”.
Take “h-ODN: miR-21-targeted hairpin deoxyribooligonucleotide AGTCTGATAAGCTACAAGTCAGCGAAAGCTGACTTG, unconjugated with the peptide (DNA, backbone and methylation of C not given here; hairpin at 3' end, unconjugated)”: the Hepatic index with RLS40 lymphosarcoma is reported as 5.23±0.17%. Besides, the “Migration rate of transfected B16 cells (in words)” value in the data set on B16 cells (compared with Lipofectamine alone) is “almost the same rate as cells incubated with Lipofectamine”.
